≈ marks a conversion by molar mass, not a printed value.
biological target: CDK2 (human) (UniProt P24941); assay: Enzyme Assay

Row | Structure (SMILES) | IC50 [µg/mL]
1 | CC(C)(C)c1cc2c(NN=Cc3nccs3)ncnc2s1 | 0.2 (≈ 0.63 µM)
2 | CNCc1csc(C=NNc2ncnc3sc(C(C)C)cc23)n1 | 1.5 (≈ 4.33 µM)
3 | CNCc1cnc(C=NNc2ncnc3sc(C(C)(C)C)cc23)s1 | 0.35 (≈ 0.971 µM)
4 | CC(C)(C)c1cc2c(NN=Cc3nc(C4CCNC4)cs3)ncnc2s1 (stereo not given) | 1.8 (≈ 4.66 µM)
5 | CCC(C)c1cc2c(NN=Cc3nc(CNC)cs3)ncnc2s1 (stereo not given) | 0.44 (≈ 1.22 µM)
6 | CC(N)c1csc(C=NNc2ncnc3sc(C(C)(C)C)cc23)n1 (stereo not given) | 0.83 (≈ 2.3 µM)
7 | CC(C)(C)c1cc2c(NN=Cc3nc(CN)cs3)ncnc2s1 | 0.38 (≈ 1.1 µM)
8 | CNCc1csc(C=NNc2ncnc3sc(C(C)(C)C)cc23)n1 | 0.98 (≈ 2.72 µM)
9 | CC(C)(C)c1cc2c(NN=Cc3nc(C4CNC4)cs3)ncnc2s1 | 1 (≈ 2.68 µM)
10 | CNCc1csc(C=NNc2ncnc3sc(C(C)(C)CO)cc23)n1 | 1.8 (≈ 4.78 µM)
11 | CNCc1csc(C=NNc2ncnc3sc(C4CCC4)cc23)n1 | 1.4 (≈ 3.91 µM)
12 | CC(C)(C)c1cc2c(NN=Cc3cscn3)ncnc2s1 | 2.2 (≈ 6.93 µM)
13 | CC(C)(C)c1cc2c(NN=Cc3nc(C4CCNCC4)cs3)ncnc2s1 | 1.7 (≈ 4.24 µM)
14 | CNCc1csc(C=NNc2ncnc3sc(C(C)(C)CF)cc23)n1 | 1.8 (≈ 4.76 µM)
15 | CNCc1csc(C=NNc2ncnc3sc(C4CCCCC4)cc23)n1 | 0.81 (≈ 2.1 µM)
16 | CNC(C)c1csc(C=NNc2ncnc3sc(C(C)(C)C)cc23)n1 (stereo not given) | 1.1 (≈ 2.94 µM)
17 | CCCC(C)c1cc2c(NN=Cc3nc(CNC)cs3)ncnc2s1 (stereo not given) | 1.4 (≈ 3.74 µM)
18 | CNCc1ccc(C=NNc2ncnc3sc(C(C)(C)C)cc23)cc1 | 0.68 (≈ 1.92 µM)
19 | CNCc1csc(C=NNc2ncnc3sc(C4CC4)cc23)n1 | > 2
20 | CN(C)Cc1csc(C=NNc2ncnc3sc(C(C)(C)C)cc23)n1 | 1.4 (≈ 3.74 µM)
21 | CC(C)(C)c1cc2c(NN=Cc3cncs3)ncnc2s1 | 0.059 (≈ 0.186 µM)
22 | CCC(N)c1csc(C=NNc2ncnc3sc(C(C)(C)C)cc23)n1 (stereo not given) | 1.4 (≈ 3.74 µM)
23 | CC(N)c1csc(C=NNc2ncnc3sc(C(C)(C)CF)cc23)n1 (stereo not given) | 0.68 (≈ 1.8 µM)
24 | CNCc1csc(C=NNc2ncnc3sc(C(C)C(C)C)cc23)n1 (stereo not given) | 0.88 (≈ 2.35 µM)
25 | CC(C)(C)c1cc2c(NN=Cc3nc4c(s3)CNC4)ncnc2s1 | 0.2 (≈ 0.558 µM)
